Measured values published in article PMC6887723, “Design and Synthesis of 4-(Heterocyclic Substituted Amino)-1H-Pyrazole-3-Carboxamide Derivatives and Their Potent Activity against Acute Myeloid Leukemia (AML)” (International Journal of Molecular Sciences, 2019).

Legend:
Test in all cases: Hot-Spot kinase profiling
Type in all cases: biochemical
ERK7/MAPK15 = target: T1, ERK7/MAPK15 (Homo sapiens, UniProt Q8TD08)
T1 construct: purchased Reaction Biology Corp
Procedure: (§1) Activities of kinases were determined using Hot-SpotSM kinase assay which was performed by Reaction Biology Corp. (Malvern PA, USA) as described previously.

GSK3β = target: T2, GSK3β (Homo sapiens, UniProt P49841)
T2 construct: purchased Reaction Biology Corp
Procedure: as §1

CDK4/cyclin D1 = target: T3, CDK4/cyclin D1 (Homo sapiens, UniProt P11802)
T3 construct: purchased Reaction Biology Corp
Procedure: as §1

CHK2 = target: T4, CHK2 (Homo sapiens, UniProt O96017); details: read-out: % Enzyme Activity (Relative to DMSO Controls) CHK2
T4 construct: purchased Reaction Biology Corp. (HotSpot kinase assay)
Procedure: as §1

FLT3 (F594_R595insREY) = target: T5, FLT3 (F594_R595insREY) (Homo sapiens, UniProt P36888, INS594REY)
T5 construct: purchased Reaction Biology Corp
Procedure: as §1

FLT3 (F594_R595insR) = target: T6, FLT3 (F594_R595insR) (Homo sapiens, UniProt P36888, INS594R)
T6 construct: purchased Reaction Biology Corp
Procedure: as §1

FLT3 (ITD)-W51 = target: T7, FLT3 (ITD)-W51 (Homo sapiens, UniProt P36888, DUP595-601)
T7 construct: purchased Reaction Biology Corp
Procedure: as §1

FLT4/VEGFR3 = target: T8, FLT4/VEGFR3 (Homo sapiens, UniProt P35916)
T8 construct: purchased Reaction Biology Corp
Procedure: as §1

FLT3 (ITD)-F691L = FLT3 (ITD)-F691L (Homo sapiens, UniProt P36888, F691L/ITD); details: Table 5 kinase profiling
Procedure: as §1

Aurora B = target: T9, Aurora B (Homo sapiens, UniProt Q96GD4); details: read-out: % Enzyme Activity (Relative to DMSO Controls) Aurora B
T9 construct: purchased Reaction Biology Corp. (HotSpot kinase assay)
Procedure: as §1

c-Kit = target: T10, c-Kit (Homo sapiens, UniProt P10721); details: read-out: % Enzyme Activity (Relative to DMSO Controls) c-Kit
T10 construct: purchased Reaction Biology Corp. (HotSpot kinase assay)
Procedure: as §1

ALK = target: T11, ALK (Homo sapiens, UniProt Q9UM73); details: read-out: % Enzyme Activity (Relative to DMSO Controls) ALK
T11 construct: purchased Reaction Biology Corp. (HotSpot kinase assay)
Procedure: as §1

FGFR1 = target: T12, FGFR1 (Homo sapiens, UniProt P11362); details: read-out: % Enzyme Activity (Relative to DMSO Controls) FGFR1
T12 construct: purchased Reaction Biology Corp. (HotSpot kinase assay)
Procedure: as §1

[1] = target: T13, FLT3 (Y591-V592insVDFREYEYD) (Homo sapiens, UniProt P36888, INS591VDFREYEYD)
T13 construct: purchased Reaction Biology Corp
Procedure: as §1

ALK1/ACVR1 = details: 0.15 μM
Procedure: as §1

PDGFRa = target: T14, PDGFRa (Homo sapiens, UniProt P16234); details: read-out: % Enzyme Activity (Relative to DMSO Controls) PDGFRa
T14 construct: purchased Reaction Biology Corp. (Malvern PA, USA)
Procedure: as §1

FLT3 = target: T15, FLT3 (Homo sapiens, UniProt P36888)
T15 construct: purchased Reaction Biology Corp
T15 sequence (P36888 27-993): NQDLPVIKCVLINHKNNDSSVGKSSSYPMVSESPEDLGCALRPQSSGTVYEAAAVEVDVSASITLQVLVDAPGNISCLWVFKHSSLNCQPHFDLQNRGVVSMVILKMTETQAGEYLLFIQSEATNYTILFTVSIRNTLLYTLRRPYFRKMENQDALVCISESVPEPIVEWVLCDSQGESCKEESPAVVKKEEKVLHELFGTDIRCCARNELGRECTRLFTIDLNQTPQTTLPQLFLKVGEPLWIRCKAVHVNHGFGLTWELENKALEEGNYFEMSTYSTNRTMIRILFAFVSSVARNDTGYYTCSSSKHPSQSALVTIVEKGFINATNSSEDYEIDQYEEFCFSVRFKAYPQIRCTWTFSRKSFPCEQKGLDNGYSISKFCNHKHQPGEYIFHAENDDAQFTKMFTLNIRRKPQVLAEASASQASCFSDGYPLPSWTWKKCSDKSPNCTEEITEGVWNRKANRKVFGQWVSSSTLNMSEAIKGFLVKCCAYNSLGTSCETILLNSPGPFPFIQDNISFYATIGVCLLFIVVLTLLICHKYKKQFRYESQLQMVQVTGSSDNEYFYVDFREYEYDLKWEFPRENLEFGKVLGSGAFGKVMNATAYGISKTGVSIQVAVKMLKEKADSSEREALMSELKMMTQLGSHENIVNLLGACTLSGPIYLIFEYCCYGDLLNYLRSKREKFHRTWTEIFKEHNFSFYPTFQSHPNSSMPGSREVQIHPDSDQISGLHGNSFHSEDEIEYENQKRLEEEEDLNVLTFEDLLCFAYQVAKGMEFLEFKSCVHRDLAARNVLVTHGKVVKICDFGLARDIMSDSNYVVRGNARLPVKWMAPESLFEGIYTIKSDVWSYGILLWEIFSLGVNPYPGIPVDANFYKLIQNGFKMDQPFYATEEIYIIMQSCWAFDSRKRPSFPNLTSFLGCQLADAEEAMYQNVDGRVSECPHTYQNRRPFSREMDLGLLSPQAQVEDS
Procedure: as §1

JAK2 = target: T16, JAK2 (Homo sapiens, UniProt O60674); details: read-out: % Enzyme Activity (Relative to DMSO Controls) JAK2
T16 construct: purchased Reaction Biology Corp
Procedure: as §1

T5 sequence (P36888 with tags, fused parts or gaps INS594REY limits assumed): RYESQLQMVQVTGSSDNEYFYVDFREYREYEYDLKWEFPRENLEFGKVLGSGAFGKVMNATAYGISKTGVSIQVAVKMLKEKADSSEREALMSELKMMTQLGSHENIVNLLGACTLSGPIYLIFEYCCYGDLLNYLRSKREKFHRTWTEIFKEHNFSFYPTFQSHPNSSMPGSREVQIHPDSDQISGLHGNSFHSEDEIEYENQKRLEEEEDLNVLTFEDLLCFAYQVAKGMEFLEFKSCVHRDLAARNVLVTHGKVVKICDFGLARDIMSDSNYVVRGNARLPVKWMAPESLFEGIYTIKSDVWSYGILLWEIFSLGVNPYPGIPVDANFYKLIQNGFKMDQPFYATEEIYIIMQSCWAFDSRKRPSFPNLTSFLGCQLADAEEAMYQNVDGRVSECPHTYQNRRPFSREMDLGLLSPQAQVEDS
T1 sequence (Q8TD08 whole entry): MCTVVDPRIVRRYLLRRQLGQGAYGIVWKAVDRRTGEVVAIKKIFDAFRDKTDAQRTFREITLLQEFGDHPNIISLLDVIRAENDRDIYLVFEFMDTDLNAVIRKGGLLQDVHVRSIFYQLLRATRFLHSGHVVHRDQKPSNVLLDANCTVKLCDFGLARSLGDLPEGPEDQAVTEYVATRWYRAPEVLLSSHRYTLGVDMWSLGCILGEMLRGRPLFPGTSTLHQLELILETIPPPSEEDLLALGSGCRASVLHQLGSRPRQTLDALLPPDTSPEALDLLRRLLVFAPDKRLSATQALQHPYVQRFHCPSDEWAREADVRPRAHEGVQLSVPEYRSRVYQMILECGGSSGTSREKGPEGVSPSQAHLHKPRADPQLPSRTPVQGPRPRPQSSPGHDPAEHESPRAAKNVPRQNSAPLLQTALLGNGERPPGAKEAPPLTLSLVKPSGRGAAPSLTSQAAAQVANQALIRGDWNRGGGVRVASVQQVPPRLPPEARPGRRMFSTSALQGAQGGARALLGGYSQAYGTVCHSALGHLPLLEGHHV
T13 sequence (P36888 with tags, fused parts or gaps with the stated changes limits assumed): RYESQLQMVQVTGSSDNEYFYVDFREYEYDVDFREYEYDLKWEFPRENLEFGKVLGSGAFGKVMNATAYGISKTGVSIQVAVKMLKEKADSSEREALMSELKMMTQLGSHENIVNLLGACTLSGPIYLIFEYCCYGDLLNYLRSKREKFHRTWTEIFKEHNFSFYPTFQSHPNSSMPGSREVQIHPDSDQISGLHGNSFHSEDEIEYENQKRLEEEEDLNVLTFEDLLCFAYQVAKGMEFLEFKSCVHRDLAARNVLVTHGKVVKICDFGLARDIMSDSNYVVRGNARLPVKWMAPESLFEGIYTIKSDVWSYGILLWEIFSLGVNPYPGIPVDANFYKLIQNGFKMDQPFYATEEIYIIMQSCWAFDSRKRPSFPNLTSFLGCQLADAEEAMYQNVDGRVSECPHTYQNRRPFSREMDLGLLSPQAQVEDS
T8 sequence (P35916 25-1363): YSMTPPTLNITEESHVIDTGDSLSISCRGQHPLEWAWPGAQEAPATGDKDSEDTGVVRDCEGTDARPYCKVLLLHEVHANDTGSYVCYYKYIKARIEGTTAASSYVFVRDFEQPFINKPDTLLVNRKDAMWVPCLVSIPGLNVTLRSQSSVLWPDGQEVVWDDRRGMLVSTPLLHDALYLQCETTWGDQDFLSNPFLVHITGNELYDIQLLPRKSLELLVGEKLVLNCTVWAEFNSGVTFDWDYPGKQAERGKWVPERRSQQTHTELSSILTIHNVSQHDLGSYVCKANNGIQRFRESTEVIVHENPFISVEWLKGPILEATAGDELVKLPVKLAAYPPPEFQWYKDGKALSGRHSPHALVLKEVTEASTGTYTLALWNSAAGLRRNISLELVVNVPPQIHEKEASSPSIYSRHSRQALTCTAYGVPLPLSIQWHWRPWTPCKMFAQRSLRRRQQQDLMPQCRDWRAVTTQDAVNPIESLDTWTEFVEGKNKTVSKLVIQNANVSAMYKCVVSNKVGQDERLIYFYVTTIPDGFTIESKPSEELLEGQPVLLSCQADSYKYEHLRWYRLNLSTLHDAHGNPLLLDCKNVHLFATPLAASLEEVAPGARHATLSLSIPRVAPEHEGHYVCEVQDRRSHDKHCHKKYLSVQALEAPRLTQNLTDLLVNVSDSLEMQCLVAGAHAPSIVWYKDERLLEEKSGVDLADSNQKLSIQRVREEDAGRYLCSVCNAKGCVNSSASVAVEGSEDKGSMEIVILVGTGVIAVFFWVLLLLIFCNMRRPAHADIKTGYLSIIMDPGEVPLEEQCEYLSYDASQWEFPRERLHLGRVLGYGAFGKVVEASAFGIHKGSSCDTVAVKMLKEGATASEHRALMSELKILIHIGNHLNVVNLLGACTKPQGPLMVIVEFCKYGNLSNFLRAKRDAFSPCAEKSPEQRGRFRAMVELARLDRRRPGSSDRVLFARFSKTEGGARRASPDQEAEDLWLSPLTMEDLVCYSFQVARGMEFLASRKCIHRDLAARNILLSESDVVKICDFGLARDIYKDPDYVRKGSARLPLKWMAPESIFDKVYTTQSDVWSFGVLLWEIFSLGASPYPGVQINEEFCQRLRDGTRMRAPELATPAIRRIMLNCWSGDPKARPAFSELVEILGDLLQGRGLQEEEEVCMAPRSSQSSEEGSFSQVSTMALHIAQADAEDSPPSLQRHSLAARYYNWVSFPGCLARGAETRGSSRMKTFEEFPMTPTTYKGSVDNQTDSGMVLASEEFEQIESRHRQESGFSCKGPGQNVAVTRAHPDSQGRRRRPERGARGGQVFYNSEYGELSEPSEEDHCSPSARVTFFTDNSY
T7 sequence (P36888 with tags, fused parts or gaps DUP595-601 limits assumed): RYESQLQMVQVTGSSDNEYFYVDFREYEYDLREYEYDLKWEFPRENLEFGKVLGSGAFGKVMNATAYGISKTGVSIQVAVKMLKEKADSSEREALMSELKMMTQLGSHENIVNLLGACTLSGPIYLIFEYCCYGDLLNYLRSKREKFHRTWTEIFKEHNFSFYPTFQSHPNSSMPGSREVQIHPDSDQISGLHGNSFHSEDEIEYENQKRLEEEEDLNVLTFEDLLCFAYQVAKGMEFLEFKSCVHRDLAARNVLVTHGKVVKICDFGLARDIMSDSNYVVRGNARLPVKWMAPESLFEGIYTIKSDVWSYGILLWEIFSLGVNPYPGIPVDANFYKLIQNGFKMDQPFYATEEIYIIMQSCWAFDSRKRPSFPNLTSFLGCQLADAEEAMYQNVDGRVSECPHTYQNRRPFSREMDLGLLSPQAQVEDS
T6 sequence (P36888 with tags, fused parts or gaps INS594R limits assumed): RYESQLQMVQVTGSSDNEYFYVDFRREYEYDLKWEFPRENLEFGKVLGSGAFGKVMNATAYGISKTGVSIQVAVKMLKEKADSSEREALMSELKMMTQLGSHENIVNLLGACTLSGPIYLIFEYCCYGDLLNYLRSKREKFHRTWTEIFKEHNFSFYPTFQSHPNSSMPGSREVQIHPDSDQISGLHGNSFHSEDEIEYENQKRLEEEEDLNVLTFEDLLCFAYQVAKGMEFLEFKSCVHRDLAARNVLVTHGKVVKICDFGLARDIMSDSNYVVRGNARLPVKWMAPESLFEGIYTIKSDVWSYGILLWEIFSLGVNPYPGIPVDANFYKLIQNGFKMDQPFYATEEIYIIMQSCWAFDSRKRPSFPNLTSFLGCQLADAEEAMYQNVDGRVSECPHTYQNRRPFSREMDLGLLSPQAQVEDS
T3 sequence (P11802 whole entry): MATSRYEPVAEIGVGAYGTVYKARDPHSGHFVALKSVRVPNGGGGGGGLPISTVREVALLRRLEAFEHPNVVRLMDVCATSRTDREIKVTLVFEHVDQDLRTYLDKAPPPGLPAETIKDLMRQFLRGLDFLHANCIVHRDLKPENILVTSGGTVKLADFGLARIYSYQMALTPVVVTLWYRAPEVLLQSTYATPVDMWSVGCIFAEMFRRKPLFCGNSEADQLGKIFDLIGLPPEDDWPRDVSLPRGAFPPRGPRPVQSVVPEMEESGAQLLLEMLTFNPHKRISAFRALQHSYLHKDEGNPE
T3 sequence (P24385 whole entry partner): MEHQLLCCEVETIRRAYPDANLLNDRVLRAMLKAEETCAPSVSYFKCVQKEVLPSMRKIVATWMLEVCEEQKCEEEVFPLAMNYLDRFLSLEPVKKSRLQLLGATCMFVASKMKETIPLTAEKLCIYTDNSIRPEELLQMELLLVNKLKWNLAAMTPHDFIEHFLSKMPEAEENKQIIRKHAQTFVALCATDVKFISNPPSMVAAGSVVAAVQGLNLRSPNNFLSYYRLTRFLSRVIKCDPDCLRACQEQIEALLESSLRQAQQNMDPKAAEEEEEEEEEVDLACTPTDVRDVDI
T2 sequence (P49841 whole entry): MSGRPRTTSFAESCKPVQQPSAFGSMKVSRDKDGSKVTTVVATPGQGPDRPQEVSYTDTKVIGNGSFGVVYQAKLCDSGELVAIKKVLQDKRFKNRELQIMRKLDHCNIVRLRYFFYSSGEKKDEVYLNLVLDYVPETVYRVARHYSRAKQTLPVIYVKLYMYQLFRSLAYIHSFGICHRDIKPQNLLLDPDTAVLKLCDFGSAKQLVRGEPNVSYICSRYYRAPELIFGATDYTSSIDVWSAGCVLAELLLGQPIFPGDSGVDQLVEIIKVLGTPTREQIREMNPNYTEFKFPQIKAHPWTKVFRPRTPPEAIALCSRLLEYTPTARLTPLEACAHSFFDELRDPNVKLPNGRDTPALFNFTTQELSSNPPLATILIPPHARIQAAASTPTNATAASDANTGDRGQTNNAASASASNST
T9 sequence (Q96GD4 whole entry): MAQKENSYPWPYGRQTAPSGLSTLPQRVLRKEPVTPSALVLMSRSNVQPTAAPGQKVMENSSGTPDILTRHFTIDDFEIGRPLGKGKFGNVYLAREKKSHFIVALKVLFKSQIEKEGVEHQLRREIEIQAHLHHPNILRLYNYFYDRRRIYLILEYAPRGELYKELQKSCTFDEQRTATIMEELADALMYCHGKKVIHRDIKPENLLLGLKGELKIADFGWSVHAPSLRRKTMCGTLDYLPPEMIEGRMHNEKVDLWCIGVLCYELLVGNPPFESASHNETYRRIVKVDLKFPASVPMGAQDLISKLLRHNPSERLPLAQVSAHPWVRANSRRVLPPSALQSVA

remaining activity at 0.15 µM (GSK3β; 0.15 μM, read-out: % Enzyme Activity (Relative to DMSO Controls) GSK3b): 8.65%
IC50 (GSK3β; Table 5 kinase profiling): 12 ± 1.2 nM
remaining activity at 0.15 µM (CDK4/cyclin D1; 0.15 μM, read-out: % Enzyme Activity (Relative to DMSO Controls) CDK4/cyclin D1): 1.56%
IC50 (CDK4/cyclin D1; Table 5 kinase profiling): 0.78 ± 0.04 nM
remaining activity at 0.15 µM (CHK2): 38.4%
remaining activity at 0.15 µM (FLT3 (F594_R595insREY); 0.15 μM, read-out: % Enzyme Activity (Relative to DMSO Controls) FLT3 (F594_R595insREY)): 0.8%
IC50 (FLT3 (F594_R595insREY); Table 5 kinase profiling): 1.38 ± 0.11 nM
remaining activity at 0.15 µM (FLT3 (F594_R595insR); 0.15 μM, read-out: % Enzyme Activity (Relative to DMSO Controls) FLT3 (F594_R595insR)): 0.47%
IC50 (FLT3 (F594_R595insR); Table 5 kinase profiling): 0.63 ± 0.09 nM
remaining activity at 0.15 µM (FLT3 (ITD)-W51; 0.15 μM, read-out: % Enzyme Activity (Relative to DMSO Controls) FLT3 (ITD)-W51): 0.51%
IC50 (FLT3 (ITD)-W51; Table 5 kinase profiling): 0.94 ± 0.09 nM
remaining activity at 0.15 µM (FLT4/VEGFR3; 0.15 μM, read-out: % Enzyme Activity (Relative to DMSO Controls) FLT4/VEGFR3): 3.62%
IC50 (FLT4/VEGFR3; Table 5 kinase profiling): 4.16 ± 0.19 nM
IC50 (FLT3 (ITD)-F691L): 0.6 ± 0.01 nM
remaining activity at 0.15 µM (Aurora B): 55.3%
remaining activity at 0.15 µM (c-Kit): 64.8%
remaining activity at 0.15 µM (ALK): 16.6%
remaining activity at 0.15 µM (FGFR1): 40%
IC50 ([1]; Table 5 kinase profiling, read-out: IC50 FLT3 (Y591-V592ins[…])): 0.66 ± 0.08 nM
remaining activity at 0.15 µM ([1]; read-out: % Enzyme Activity (Relative to DMSO Controls) FLT3 (Y591-V592insVDFREYEYD), 0.15 μM, read-out: % Enzyme Activity (Relative to DMSO Controls) FLT3 (Y591-V592ins[…])): 0.54%
% Enzyme Activity (Relative to DMSO Controls) ALK1/ACVR1 (ALK1/ACVR1): 57.96%
remaining activity at 0.15 µM (PDGFRa): 82.8%
remaining activity at 0.15 µM (FLT3; 0.15 μM, read-out: % Enzyme Activity (Relative to DMSO Controls) FLT3): 0.01%
IC50 (FLT3; Table 5 kinase profiling): 0.035 ± 0.01 nM
remaining activity at 0.15 µM (JAK2): 32%
Structure (SMILES): O=C(Nc1ccc(N2CCNCC2)cc1)c1n[nH]cc1Nc1ncnc2sc3c(c12)CCC3 [Compound 8t]
remaining activity at 0.15 µM (ERK7/MAPK15; 0.15 μM, read-out: % Enzyme Activity (Relative to DMSO Controls) ERK7/MAPK15): 2.96%
IC50 (ERK7/MAPK15; Table 5 kinase profiling): 9.57 ± 0.23 nM
